Laboratory results published in patent publication US5393738A (Sandoz, Ltd., priority 1986, dated 1995).
Where two headings read alike, the source gives them in different places.

Experiments:
[1] = Stability of SMS in gastric juices; type: in vitro ADME
[2] = Biopharmaceutical properties of SMS: first pass effect and excretion; type: in vivo; conditions: rat

C[C@@H](O)[C@@H]1NC(=O)[C@H](CCCCN)NC(=O)[C@@H](Cc2c[nH]c3ccccc23)NC(=O)[C@H](Cc2ccccc2)NC(=O)[C@@H](NC(=O)[C@H](N)Cc2ccccc2)CSSC[C@@H](C(=O)N[C@H](CO)[C@@H](C)O)NC1=O [SMS, octreotide]
stability in gastric juices [1]: extremely stable | dose excreted ([2]; bile, read-out: excreted as the unchanged drug in the bile): ~80% | dose excreted ([2]; urine, read-out: excreted as the unchanged drug in the urine): ~20%
